Where “and” joins values, the source holds several entries; their conditions need not be identical. Equal values may be shown once. Inconclusive results and toxic doses are left out.
System: P388 leukemia ip, CD2F1 mice, survival T/C
Assay: NCI In Vivo Anticancer Drug Screen. Data for tumor model P388 Leukemia (intraperitoneal) in CD2F1 (CDF1) mice
Conditions: endpoint: median survival time, higher = longer survival
Method in brief: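 Mice carrying the transplanted tumor received test compound or vehicle. Survival was recorded in each group, and the value is the treated-group measurement divided by that of the vehicle-treated control group.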

[1] = dose: 50.0 mg/kg/injection, schedule: Q01DX005 (ip), vehicle: saline with Tween-80
[2] = dose: 100.0 mg/kg/injection, schedule: Q01DX005 (ip), vehicle: saline with Tween-80
[3] = dose: 200.0 mg/kg/injection, schedule: Q01DX005 (ip), vehicle: saline with Tween-80
[4] = dose: 60.0 mg/kg/injection, schedule: Q01DX005 (ip), vehicle: saline with Tween-80
[5] = dose: 120.0 mg/kg/injection, schedule: Q01DX005 (ip), vehicle: saline with Tween-80
[6] = dose: 50.0 mg/kg/injection, schedule: Q01DX005 (ip), vehicle: Klucel (hydroxypropylcellulose) (HPC)
[7] = dose: 100.0 mg/kg/injection, schedule: Q01DX005 (ip), vehicle: Klucel (hydroxypropylcellulose) (HPC)
[8] = dose: 200.0 mg/kg/injection, schedule: Q01DX005 (ip), vehicle: Klucel (hydroxypropylcellulose) (HPC)
[9] = dose: 50.0 mg/kg/injection, schedule: Q01DX009 (ip), vehicle: saline with Tween-80
[10] = dose: 100.0 mg/kg/injection, schedule: Q01DX009 (ip), vehicle: saline with Tween-80
[11] = dose: 200.0 mg/kg/injection, schedule: Q01DX009 (ip), vehicle: saline with Tween-80
[12] = dose: 50.0 mg/kg/injection, schedule: Q01DX009 (ip), vehicle: Klucel (hydroxypropylcellulose) (HPC)
[13] = dose: 100.0 mg/kg/injection, schedule: Q01DX009 (ip), vehicle: Klucel (hydroxypropylcellulose) (HPC)
[14] = dose: 200.0 mg/kg/injection, schedule: Q01DX009 (ip), vehicle: Klucel (hydroxypropylcellulose) (HPC)

Which results are given for `C=CC1C(OC2OC(CO)C(O)C(O)C2O)OC=C(C(=O)OC)C1CC1CC(=O)CC(CCc2ccc(O)cc2)O1` (centres undefined)?
T/C (dose: 8.0 mg/kg/injection, schedule: Q01DX005 (ip), vehicle: distilled water + Tween-80): 96 % of control; T/C (dose: 16.0 mg/kg/injection, schedule: Q01DX005 (ip), vehicle: distilled water + Tween-80): 99 % of control; T/C (dose: 25.0 mg/kg/injection, schedule: Q01DX005 (ip), vehicle: water): 100 % of control; T/C (dose: 32.0 mg/kg/injection, schedule: Q01DX005 (ip), vehicle: distilled water + Tween-80): 91 % of control; T/C (dose: 50.0 mg/kg/injection, schedule: Q01DX005 (ip), vehicle: water): 99 % of control; T/C (dose: 64.0 mg/kg/injection, schedule: Q01DX005 (ip), vehicle: distilled water + Tween-80): 90 % of control; T/C (dose: 100.0 mg/kg/injection, schedule: Q01DX005 (ip), vehicle: water): 96 % of control; T/C (dose: 200.0 mg/kg/injection, schedule: Q01DX005 (ip), vehicle: water): 99 % of control

For `C/C(=N\N=C(/[Se])N1CCC(C)CC1)c1ccccn1`, which T/C [1] is on record?
Its T/C is 107 % of control.

What about the T/C [2] of the same molecule?
The T/C was 100 % of control.

And the T/C [3]?
The T/C was 100 % of control.

`CC1SC2(C(=O)Nc3ccccc32)N(c2ccc(Cl)cc2)C1=O` (centres undefined) was tested. Which T/C [4] did it give?
Its T/C is 101 % of control.

What about the T/C [5] of the same molecule?
Its T/C is 103 % of control.

And the T/C (dose: 240.0 mg/kg/injection, schedule: Q01DX005 (ip), vehicle: saline with Tween-80)?
Its T/C is 96 % of control.

For `COc1cc2c(cc1OC)C1CC(CC(N)=O)(C(N)=O)CCN1CC2` (centres undefined), which T/C [1] is on record?
The T/C was 97 % of control.

And the T/C [2]?
The T/C was 94 % of control.

What about the T/C [3] of the same molecule?
The T/C was 90 % of control.

What does the source list for `CCOC(=O)C1(CC(C)C)CCOC1=O` (centres undefined)?
T/C [6]: 99 % of control; T/C [7]: 96 % of control; T/C [8]: 97 % of control

`O=C1OC2C(I)C3CC2C1C3c1ccccc1` (centres undefined) was tested. Which T/C [1] did it give?
Its T/C is 105 % of control.

What about the T/C [2] of the same molecule?
Its T/C is 103 % of control.

What about the T/C [3] of the same molecule?
The T/C was 105 % of control.

Which results are given for `CC(Br)C(=O)c1ccc(OCc2ccccc2)cc1` (centres undefined)?
T/C [9]: 110 % of control; T/C [10]: 124 % of control; T/C [11]: 121 % of control

For `C#CC(CC)(CC)N1CC(OC(=O)NCC=C)C1`, which T/C [12] is on record?
Its T/C is 100 % of control.

What about the T/C [13] of the same molecule?
The T/C was 97 % of control.

What about the T/C [14] of the same molecule?
Its T/C is 95 % of control.

How did the T/C [4] turn out when `CC(CN)OC12CC3CC(CC(C3)C1)C2` (centres undefined) was run?
The T/C was 100 % of control.

And the T/C [5]?
Its T/C is 99 % of control.

Which T/C [6] does the source give for `CSC(=O)/N=C(\N)NC(=O)c1ccccc1` here?
The T/C was 95 % of control.

And the T/C [7]?
Its T/C is 94 % of control.

What about the T/C [8] of the same molecule?
Its T/C is 92 % of control.

How did the T/C (dose: 25.0 mg/kg/injection, schedule: Q01DX009 (ip), vehicle: saline) turn out when `CCCCCCCCCCCC(=O)NC(=S)Nc1ccccc1C(=O)OC` was run?
Its T/C is 105 % of control.

What about the T/C (dose: 50.0 mg/kg/injection, schedule: Q01DX009 (ip), vehicle: saline) of the same molecule?
The T/C was 99 % of control.

What does the source list for `COc1cc(N=Nc2ccc([N+](=O)[O-])cc2)ccc1N(CCCl)CCCl`?
T/C [9]: 151 % of control; T/C [10]: 153 % of control and 156 % of control; T/C [11]: 168 % of control and 201 % of control

Which results are given for `Nc1nc(-c2cc3cc(Cl)ccc3o2)cs1`?
T/C [12]: 101 % of control; T/C [13]: 101 % of control; T/C [14]: 100 % of control

How did the T/C (dose: 4.0 mg/kg/injection, schedule: Q01DX009 (ip), vehicle: Klucel (hydroxypropylcellulose) (HPC)) turn out when `C/C=C(/C)C(=O)OC1CC(C)=C2C(=O)C=C(C)C2C2OC(=O)C(C)(OC(=O)/C(C)=C\C)C12` (centres undefined) was run?
Its T/C is 102 % of control.

And the T/C (dose: 8.0 mg/kg/injection, schedule: Q01DX009 (ip), vehicle: Klucel (hydroxypropylcellulose) (HPC))?
Its T/C is 102 % of control.

And the T/C (dose: 16.0 mg/kg/injection, schedule: Q01DX009 (ip), vehicle: Klucel (hydroxypropylcellulose) (HPC))?
The T/C was 96 % of control.

And the T/C (dose: 32.0 mg/kg/injection, schedule: Q01DX009 (ip), vehicle: Klucel (hydroxypropylcellulose) (HPC))?
The T/C was 93 % of control.

With `C/C(=N\NC(=O)c1cc(C)nc2ccc(Br)cc12)c1ccccc1O` as the molecule, how does the T/C [9] read?
The T/C was 88 % of control.

And the T/C [10]?
Its T/C is 94 % of control.

And the T/C [11]?
Its T/C is 110 % of control.

— PubChem BioAssay AID330 (DTP/NCI, 2004)
